Results: US20240318142A1, “METHOD FOR PRODUCING RENAL INTERSTITIAL PROGENITOR CELLS, ERYTHROPOIETIN-PRODUCING CELLS, AND METHOD FOR PRODUCING RENIN-PRODUCING CELLS” (KYOTO UNIVERSITY, priority 2021, published 2024)

Legend:
hiPSC-derived IPCs [1] = test: qRT-PCR of EPO after further differentiation induction from IPCs (renal EPO-producing cells); type: cell-based, human; conditions: for EPO expression: SHH signal modulators under induction conditions using CHIR99021, RA, and A83-01, Days 11 to 14; for EPO expression / effect on the SAG-induced EPO up-regulation: FIG. 15; for effect on the SAG-induced EPO up-regulation: modulator together with SAG 500 nM, CHIR99021, RA, and A83-01; for EPO expression compared to the combination of SB431542 and SAG: combination of A83-01 and SAG in CFR medium, FIG. 10; for expression of EPO: combination of SB431542 and SAG (500 nM), 5% O2, FG-4592 and RA present, FIG. 9
Procedure: (§1) FIG. 9 is a diagram illustrating results of qRT-PCR analysis of EPO and renin carried out on Days 11 to 14, that is, after obtaining renal interstitial progenitor cells, for comparison of the effects of combinations of candidate differentiation induction factors for renal EPO-producing cells or renin-producing cells. The SAG concentration was 500 nM, and the concentrations of SB and CHIR are expressed in the unit of μM.
(§2) FIG. 10 is a diagram illustrating results of qRT-PCR analysis of EPO and renin on Days 11 to 14, that is, after obtaining renal interstitial progenitor cells, for comparison of the effects of combinations of various candidate differentiation induction factors. The SAG concentration was 500 nM; the concentrations of SB and A83 are expressed in the unit of μM; LDN is expressed in the unit of nM; and TGFβ1, BMP7, and activin (ACT) are expressed in the unit of ng/mL.
FIG. 15 is a diagram illustrating results of qRT-PCR analysis of EPO carried out on Days 11 to 14, that is, after obtaining renal interstitial progenitor cells, for comparison of the effects of various Sonic Hedgehog (SHH) signal modulators under induction conditions using CHIR99021, RA, and A83-01. So, Vi, Pu, Sa, and Ga represent sonidegib, vismodegib, purmophamine, SANT-1, and GANT61, respectively, and their concentrations are expressed in the unit of μM. The concentration of SAG was 500 nM, and the concentration of SHH was 100 ng/mL.
(§3) First, using the IPCs on Day 11, culture was performed under 5% O2 hypoxic conditions in the presence of FG-4592 (N-[(4-hydroxy-1-methyl-7-phenoxy-3-isoquinolinyl)carbonyl]-glycine) and RA with addition of various factors. By measuring the expression of EPO and renin, screening for induction factors for renin-producing cells and renal EPO-producing cells was carried out.
Subsequently, the effects of various SHH signal modulators in a system for differentiation induction from IPCs to EPO-producing cells were investigated (FIG. 15). Several SMO antagonists (sonidegib, vismodegib, and SANT-1) and agonists (SAG and purmophamine), a GLI1 inhibitor (GANT61), and human SHH protein were tested.

hiPSC-derived IPCs [2] = test: qRT-PCR of renin and mesangial/JG cell markers after further differentiation induction from IPCs (renin-producing cells); type: cell-based, human
Procedure: as §1, §2
FIG. 11 is a diagram illustrating results of qRT-PCR analysis of renin on Days 11 to 14, that is, after obtaining renal interstitial progenitor cells, for comparison of the effects of various factors. In the presence of CHIR99021, RA, and FG-4592 (CFR), the effects of BMP4, BMP5, and BMP7 (10 ng/mL or 100 ng/mL) were investigated under conditions with or without treatment by SB431542 (1 μM). SB is expressed in the unit of […], and TGFβ1 and ACT are expressed in the unit of ng/mL.
FIG. 12 is a diagram illustrating results of qRT-PCR analysis of marker expression for the mesangial cell lineage (GATA3, renin, and GJA5) and IPCs (FOXD1) at Hour 0 and Hour 96 after treatment with CFR+BMP7+SB. iPSC represents the control.
FIG. 13 is a diagram illustrating results of qRT-PCR analysis of cells that were subjected to treatment under hypoxic (CFR+B7+SB in 5% O2) or normal oxygen (CFR+B7+SB minus FG-4592 in 20% O2) conditions on Days 11 to 15, that is, after obtaining renal interstitial progenitor cells, which analysis was carried out for markers for JG (renin and GJA4) and mesangial cells (EBF1, GJA5, ITGA8, and GATA3). * indicates p<0.05; ** indicates p<0.01; and NS indicates “no significant difference” (Student's t-test).
FIG. 14 is a diagram illustrating results of qRT-PCR analysis of cells that were subjected to treatment with VEGF (100 ng/mL) or axitinib (3 μM) and also to treatment under hypoxic conditions (CFR+B7+SB in 5% O2) or normal conditions (CFR+B7+SB minus FG-4592 in 20% O2) on Days 11 to 15, that is, after obtaining renal interstitial progenitor cells, which analysis was carried out for markers for JG (renin and GJA4), mesangial cells (EBF1, GJA5, ITGA8, and GATA3), and VEGFA.
as §3

[3] = test system: PPS cells obtained by differentiation induction from human iPS cells; test: Induction of FOXD1-positive renal interstitial progenitor cells (IPC) from PPS cells, flow cytometric analysis (FOXD1 and OSR1) on Day 11; type: cell-based; conditions: for induction of FOXD1-positive cells: 5 days of treatment (Days 6 to 11) with the combination CHIR99021 1 μM, SB431542 10 μM and RA 100 nM, FIG. 3; for induction efficiency for OSR1-positive FOXD1-positive cells: addition of IL-1β (10 ng/mL) and SAG (500 nM) together on Days 6 to 8, FIG. 6
Procedure: FIG. 3 is a diagram illustrating results of flow cytometric analysis (FOXD1 and OSR1), carried out on Day 11, of cells that were treated with various combinations of factors during the differentiation induction period of Days 6 to 11 (the period corresponding to “Screening” in FIG. 1). The following concentrations were employed: 1 μM CHIR99021 (CHIR), 10 μM SB431542 (SB), 100 nM retinoic acid (RA), 200 ng/mL FGF9, and 25 ng/mL Noggin.
FIG. 5 is a diagram illustrating results of flow cytometric analysis (FOXD1 and OSR1), carried out on Day 11, of cells that were treated or not treated with Smoothened Agonist (SAG) (concentration, 500 nM) during the differentiation induction period of Days 6 to 8. ** indicates p<0.01 (Student's t-test), and NS indicates “no significant difference”.
FIG. 6 is a diagram illustrating results of flow cytometric analysis (FOXD1 and OSR1), carried out on Day 11, of cells that were treated with various factors during the differentiation induction period of Days 6 to 8. The following concentrations were employed: 1 μM CHIR, 10% Wnt3a, 200 ng/mLRSPO1 (R-Spondin-1), 500 nM SAG, 10 ng/mL IL-1β, 50 ng/mL Estradiol, and 10 ng/mL TGFβ1.
Human iPS cells (hiPSCs) (17K6:OSR1-GFP/FOXD1-tdTomato double knock-in hiPSCs) were first subjected to enzyme treatment for 5 minutes using a 1:1 mixture of TrypLE Select Enzyme (Thermo Fisher Scientific) and 0.5 mM EDTA/PBS, and then washed with PBS(−). Thereafter, the cells were detached using a cell scraper, and then dissociated into single cells by gentle pipetting. One day before the start of differentiation, the cells were plated into a 24-well plate (CORNING) at a density of 1.3×10^4 cells/cm^2 together with 0.5 mL of Stem Fit AK02N (Ajinomoto Healthy Supply Co., Inc.) supplemented with 10 μM Y-27632 and 2.4 μL/mL iMatrix-511 (Matrixome). Twenty-four hours later (Day 0), 5 μM CHIR99021 (Wako), 10 nM RA (Sigma), 1 ng/mL BMP4 (Peprotech), and 100 ng/mL bFGF (Wako) were added to a serum-free differentiation medium comprising DMEM/F12 Glutamax (Thermo Fisher Scientific), B27 supplement minus vitamin A (Thermo Fisher Scientific), and 0.5× penicillin/streptomycin (hereinafter referred to as basal medium), and then culture was started. Twenty-four hours thereafter (Day 1), culture was performed with a basal medium supplemented with 5 μM CHIR99021, 100 ng/mL bFGF, and 1 ng/mL BMP7 (R&D Systems). On Day 2, the medium was switched to a basal medium supplemented with 5 μM CHIR99021, 1 ng/mL BMP7, and 10 μM A83-01 (Wako). On Day 3, the medium was switched to a basal medium supplemented with 5 μM CHIR99021, 30 ng/mL bFGF, 10 ng/mL activin A (R&D Systems), and 30 μM Y-27632 (Wako). On Day 4, the cells were washed with PBS(−), treated with Accumax (Innovative Cell Technologies), and then dissociated into single cells by gentle pipetting, followed by plating into a 24-well plate (CORNING) at a density of 1.05×10^5 cells/cm^2 (2D culture) or plating into a 96-well low-cell-adhesive plate (Thermo Fisher Scientific) at a density of 2.0×10^4 cells/cm^2 (3D culture). Culture was performed for 48 hours using a basal medium supplemented with 5 μM CHIR99021, 30 ng/mL bFGF, 10 ng/mL activin A, and 30 μM Y-27632 (in addition, 1.2 μL/well iMatrix-511 or a laminin-E8 fragment library in the case of 2D culture). By this, HOXC10- and CITED1-positive PPS cells were induced.
For the PPS cells on Day 6 of the culture protocol in FIG. 1, several differentiation induction conditions were tested by combining various factors. […]

[4] = combination of CHIR99021 and SB431542, absence of SAG, 5% O2, FG-4592 and RA present, FIG. 9
[5] = BMP (10 or 100 ng/mL) added to CFR medium in the presence of SB431542 (1 μM), FIG. 11

## c1ccc2c(Oc3nc(Nc4ccc(N5CCOCC5)cc4)c4ncn(C5CCCCC5)c4n3)cccc2c1 [purmophamine, 9-cyclohexyl-N-[4-(4-morpholinyl)phenyl]-2-(1-naphthalenyloxy)-9H-purine-6-amine]
hiPSC-derived IPCs [1]
  EPO expression: up-regulation of EPO

## VEGF
hiPSC-derived IPCs [2]; VEGF 100 ng/mL added to CFR+B7+SB, Days 11 to 15, FIG. 14
  expression of markers for juxtaglomerular (JG) cells and mesangial cells: increases

## Cc1c[nH]c(-c2cnc(NCCNc3ccc(C#N)cn3)nc2-c2ccc(Cl)cc2Cl)n1 [CHIR99021]
[3]
  induction of FOXD1-positive cells: could be induced
hiPSC-derived IPCs [2]; [4]
  expression of renin: increase the expression of renin

## Cc1nn(-c2ccccc2)c(C)c1/C=N/N1CCN(Cc2ccccc2)CC1 [SANT-1]
hiPSC-derived IPCs [1]
  effect on the SAG-induced EPO up-regulation: reduced the effect of SAG

## CN(C)c1ccccc1CN1CCCN(Cc2ccccc2N(C)C)C1c1ccncc1 [GANT61]
hiPSC-derived IPCs [1]
  effect on the SAG-induced EPO up-regulation: did not reduce the effect of SAG

## IL-1β: interleukin-1β, preferably human IL-1β protein
[3]
  induction efficiency for OSR1-positive FOXD1-positive cells: increases

## Cc1c(C(=O)Nc2ccc(N3C[C@@H](C)O[C@@H](C)C3)nc2)cccc1-c1ccc(OC(F)(F)F)cc1 [sonidegib]
hiPSC-derived IPCs [1]
  effect on the SAG-induced EPO up-regulation: reduced the effect of SAG

## Cc1cccc(-c2nn(C(=S)Nc3ccccc3)cc2-c2ccnc3ccccc23)n1 [A83-01]
hiPSC-derived IPCs [1]
  EPO expression compared to the combination of SB431542 and SAG: higher EPO expression

## NC(=O)c1ccc(-c2nc(-c3ccc4c(c3)OCO4)c(-c3ccccn3)[nH]2)cc1 [SB431542]
[3]
  induction of FOXD1-positive cells: could be induced
hiPSC-derived IPCs [2]; [4]
  expression of renin: increase the expression of renin
hiPSC-derived IPCs [1]
  expression of EPO: increase the expression of EPO

## CS(=O)(=O)c1ccc(C(=O)Nc2ccc(Cl)c(-c3ccccn3)c2)c(Cl)c1 [vismodegib]
hiPSC-derived IPCs [1]
  effect on the SAG-induced EPO up-regulation: reduced the effect of SAG

## CNC1CCC(N(Cc2cccc(-c3ccncc3)c2)C(=O)c2sc3ccccc3c2Cl)CC1 (stereo not shown) [SAG]
[3]; SAG 500 nM added on Days 6 to 8 to CHIR99021+SB431542+RA, FIG. 5
  induction efficiency for FOXD1-positive cells: further increased
[3]
  induction efficiency for OSR1-positive FOXD1-positive cells: increases
hiPSC-derived IPCs [1]
  EPO expression: up-regulation of EPO
  EPO expression compared to the combination of SB431542 and SAG: higher EPO expression
  expression of EPO: increase the expression of EPO

B1: BMP7: bone morphogenetic protein 7 (protein, UniProt P18075 293-431, looked up)
Bone morphogenetic protein 7: STGSKQRSQNRSKTPKNQEALRMANVAENSSSDQRQACKKHELYVSFRDLGWQDWIIAPEGYAAYYCEGECAFPLNSYMNATNHAIVQTLVHFINPETVPKPCCAPTQLNAISVLYFDDSSNVILKKYRNMVVRACGCH
hiPSC-derived IPCs [2]; [5]
  expression of renin: high expression of renin
hiPSC-derived IPCs [2]; added to CFR medium (CHIR99021, FG-4592, RA), absence of SAG, FIG. 10
  expression of renin: positively affected

B2: BMP4: bone morphogenetic protein 4 (protein, UniProt P12644 293-408, looked up)
Bone morphogenetic protein 4: SPKHHSQRARKKNKNCRRHSLYVDFSDVGWNDWIVAPPGYQAFYCHGDCPFPLADHLNSTNHAIVQTLVNSVNSSIPKACCVPTELSAISMLYLDEYDKVVLKNYQEMVVEGCGCR
hiPSC-derived IPCs [2]; [5]
  expression of renin: high expression of renin

B3: BMP5: bone morphogenetic protein 5 (protein, UniProt P22003 317-454, looked up)
Bone morphogenetic protein 5: AANKRKNQNRNKSSSHQDSSRMSSVGDYNTSEQKQACKKHELYVSFRDLGWQDWIIAPEGYAAFYCDGECSFPLNAHMNATNHAIVQTLVHLMFPDHVPKPCCAPTKLNAISVLYFDDSSNVILKKYRNMVVRSCGCH
hiPSC-derived IPCs [2]; [5]
  expression of renin: high expression of renin
